Experimental data reported in patent US6670360B2, “Optically active pyrrolopyridazine derivatives” (Sankyo Company, Limited, priority 1999, dated 2003).

Legend:
gastric acid secretion = test: Gastric acid secretion inhibition activity in pylorus-ligated rats; format: in vivo; settings: for 50% inhibitory dose (ID50, mg/kg) against gastric acid secretion: pylorus-ligated rats, oral administration, four hours after administration
Text: Gastric Acid Secretion Inhibition Activity After groups of rats, each group consisting of 3 to 5 rats, were fasted overnight, they were subjected to midline abdominal incision and their pylorus was ligated under anesthesia with ether. The stomach and duodenum were returned to their original positions in the body, followed by closing at the abdominal incision part. A predetermined amount of a test compound was suspended in an aqueous solution containing 0.5% of sodium carboxymethylcellulose and 0.4% of Tween 80 (Polysorbate 80). The resulting suspension was orally administered to the rats. As a control, an aqueous suspension (suspending solvent) containing 0.5% of sodium carboxymethylcellulose and 0.4% of Tween 80 (Polysorbate 80) was orally administered to other rats. Four hours after administration of the test compound or suspending solvent, the rats were sacrificed by inhalation of CO2 gas. They were subjected to abdominal incision to remove their stomach. The content of the stomach was collected in a glass-made graduated centrifuge tube. After centrifugation, the amount (ml) of the supernatant and the amount (ml) of the precipitate were measured. The precipitate of the amount exceeding 0.5 ml was regarded as coprophage and removed from the data. The supernatant (100 μl) was poured into a test tube. Distilled water (4 ml) was added to the solution, and the solution was titrated to pH 7.0 with 0.01 N sodium hydroxide. A standard acid concentration solution obtained by adding 4 ml of distilled water to 100 μl of 0.1 N hydrochloric acid was titrated in a similar manner. […]

[1] = biological target: T1, proton potassium-adenosine triphosphatase (H+·K+-ATPase) (Sus scrofa, UniProt P19156); test: Test on activity of proton potassium-adenosine triphosphatase (H+·K+-ATPase); format: biochemical; settings: microsomal fraction of swine gastric mucosal layer, pH 6.85, 37° C.; read-out: 50% inhibitory concentration (IC50) against proton-potassium-adenosine triphosphatase
T1 construct: A microsomal fraction prepared in accordance with the method of Sachs, et al; from tissue; host or cells: swine gastric mucosa, microsomal fraction (density gradient ultracentrifugation)
Method: Test on Activity of Proton Potassium-adenosine Triphosphatase (H^+·K^+-ATPase) A microsomal fraction prepared in accordance with the method of Sachs, et al. [J. Bio., Chem., 251, 7690 (1976)] by homogenizing a fresh gastric mucosal layer of swine and then subjecting the homogenate to density gradient ultra centrifugation was employed as a proton potassium-adenosine triphosphatase preparation. A solution (10 μl) of a test compound dissolved in dimethyl sulfoxide was added to 0.75 ml of a 70 mM tris-hydrochloric acid buffer (5 mM magnesium chloride, 20 mM potassium chloride, pH=6.85) containing 30 to 80 μg/ml, in terms of a protein concentration, of an enzyme preparation. The mixture was incubated with 200 times/min of agitation at 37° C. for 45 minutes. The enzymatic reaction was started by adding 0.25 ml of a 8 mM solution of disodium adenosine triphosphate. After this enzymatic reaction was continued for 20 minutes, 1 ml of a 10% trichloroacetic acid-activated charcoal (100 mg) solution was added to terminate the reaction. The reaction mixture was centrifuged (at 4° C. and 3000 rpm) for 15 minutes. […] The amount of inorganic phosphoric acid in a reaction mixture free from potassium chloride was also measured. By subtracting this amount from the amount of inorganic phosphoric acid in the presence of potassium chloride, proton potassium-adenosine triphosphatase activity was determined. […]

[2] = test system: Helicobacter pylori strains 9470, 9472 and 9474; test: Antibacterial action against Helicobacter pylori (MIC, agar dilution); format: cell-based; settings: 72 h, cultured at 37° C. for 3 days, microaerophilic conditions, read-out: MIC (Minimum Inhibitory Concentration) against Helicobacter pylori
Method: Antibacterial Action Against Helicobacter pylori The antibacterial activity of the invention compound was evaluated by using Helicobacter pylori strains 9470, 9472 and 9474 and determining MIC (Minimum Inhibitory Concentration) of the invention compound against Helicobacter pylori. Helicobacter pylori was cultured by plating for 4 days. A medium was prepared by dissolving Brain Heart Infusion Agar (product of Difco Laboratories) in a prescribed amount of distilled water, sterilizing in an autoclave, adding equine blood (product of Nippon Seibutsu Zairyo) to give its concentration of 7% and then solidifying the mixture. Under microaerophilic conditions, Helicobacter pylori which had been cultured at 37° C. for 4 days was suspended in physiological saline to give its viable count of about 10^8 CFU/ml. The suspension was then diluted to 100 times and a portion (about 10 μl) of the diluted suspension was inoculated in a medium for measuring MIC. The medium employed for measuring MIC has the same composition as the preculture medium. A compound of this invention was dissolved in dimethyl sulfoxide (DMSO) and two-fold serial dilutions were made with sterilized water. After mixing the solution and the medium in a ratio of 1:99, a solidified product in the Petri dish was employed as an MIC measuring medium. […]

T1 sequence (P19156 2-1034 limits assumed): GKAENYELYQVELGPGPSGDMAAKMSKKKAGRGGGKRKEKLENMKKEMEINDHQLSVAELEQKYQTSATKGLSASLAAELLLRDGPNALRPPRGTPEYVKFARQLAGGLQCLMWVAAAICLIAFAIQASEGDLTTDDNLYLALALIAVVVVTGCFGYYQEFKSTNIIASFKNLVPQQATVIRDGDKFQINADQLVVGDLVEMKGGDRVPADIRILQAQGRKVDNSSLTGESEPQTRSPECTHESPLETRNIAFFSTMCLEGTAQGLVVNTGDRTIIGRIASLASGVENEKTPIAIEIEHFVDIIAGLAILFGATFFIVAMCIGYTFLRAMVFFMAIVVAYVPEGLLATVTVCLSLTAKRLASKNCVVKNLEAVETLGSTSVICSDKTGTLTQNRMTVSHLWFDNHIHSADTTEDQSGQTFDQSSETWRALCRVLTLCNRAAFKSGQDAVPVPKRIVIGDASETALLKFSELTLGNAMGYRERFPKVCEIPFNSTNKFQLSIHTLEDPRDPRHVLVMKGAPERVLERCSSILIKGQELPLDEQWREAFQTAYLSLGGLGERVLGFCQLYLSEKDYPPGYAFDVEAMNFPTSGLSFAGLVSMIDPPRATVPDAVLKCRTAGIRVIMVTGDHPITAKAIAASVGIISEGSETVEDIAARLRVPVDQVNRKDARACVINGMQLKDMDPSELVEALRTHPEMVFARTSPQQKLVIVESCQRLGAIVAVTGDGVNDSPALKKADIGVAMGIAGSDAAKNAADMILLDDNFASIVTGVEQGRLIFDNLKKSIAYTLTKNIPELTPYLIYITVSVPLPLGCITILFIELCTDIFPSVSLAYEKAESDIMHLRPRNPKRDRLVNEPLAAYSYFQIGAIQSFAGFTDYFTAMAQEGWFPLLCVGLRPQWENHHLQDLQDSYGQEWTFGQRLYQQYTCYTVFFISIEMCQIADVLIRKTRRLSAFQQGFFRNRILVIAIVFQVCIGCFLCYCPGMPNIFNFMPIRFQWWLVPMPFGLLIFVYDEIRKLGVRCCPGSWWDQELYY
T1 sequence (P18434 whole entry partner): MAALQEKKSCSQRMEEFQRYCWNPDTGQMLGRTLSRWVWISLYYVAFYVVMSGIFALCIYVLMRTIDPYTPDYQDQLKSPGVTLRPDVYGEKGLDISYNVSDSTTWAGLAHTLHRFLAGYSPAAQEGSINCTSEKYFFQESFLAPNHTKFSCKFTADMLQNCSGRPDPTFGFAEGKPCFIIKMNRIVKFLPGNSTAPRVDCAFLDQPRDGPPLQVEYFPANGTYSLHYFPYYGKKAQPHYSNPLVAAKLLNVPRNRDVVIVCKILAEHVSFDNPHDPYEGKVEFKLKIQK

| Compound | 50% inhibitory dose (ID50, mg/kg) against gastric acid secretion (gastric acid secretion) | IC50 [1] | MIC [2] | effects on gastric acid secretion relative to its racemate (times stronger) (gastric acid secretion; from ID50 values of Table 2, versus racemate (Compound A)) |
| --- | --- | --- | --- | --- |
| Cc1c(C)n(CC2CC2C)c2c(OCc3ccc(F)cc3)nncc12 (racemic) [Compound A, 7-(4-Fluorobenzyloxy)-1-[(E)-2-methylcyclopropylmethyl]-2,3-dimethylpyrrolo[2,3-d]pyridazine (racemate), reference compound] | 1.64 mg/kg |  |  |  |
| Cc1c(C)n(C[C@H]2C[C@@H]2C)c2c(OCc3ccc(F)cc3)nncc12 [Example 1, 7-(4-Fluorobenzyloxy)-2,3-dimethyl-1-[(1S,2S)-2-methylcyclopropylmethyl]pyrrolo[2,3-d]pyridazine] | 0.52 mg/kg | ≤ 295 nM | ≤ 12.5 µg/mL | about 3 times |
